In one data set the test system is A549 cells. Description: cells. The format is cell-based. The following applies: for IC50: Homo sapiens.
A further data set addresses MRP1 (Homo sapiens, UniProt P33527). Description: cell-based.
The next data set concerns HEK control cells. Description: cells. The format is cell-based. The following applies: Homo sapiens.
The next data set in a line: in vitro. The settings on record: human, IC50 etoposide-induced growth inhibition.
[1] abbreviates: A549, read-out: IC50 growth inhibition, co-treatment with 10 nM HN2.
The mark [2] stands for this setting: A549, read-out: IC50 growth inhibition, drug alone.

Where two headings read alike, the source gives them in different places.

MRP1, sequence (P33527 whole entry): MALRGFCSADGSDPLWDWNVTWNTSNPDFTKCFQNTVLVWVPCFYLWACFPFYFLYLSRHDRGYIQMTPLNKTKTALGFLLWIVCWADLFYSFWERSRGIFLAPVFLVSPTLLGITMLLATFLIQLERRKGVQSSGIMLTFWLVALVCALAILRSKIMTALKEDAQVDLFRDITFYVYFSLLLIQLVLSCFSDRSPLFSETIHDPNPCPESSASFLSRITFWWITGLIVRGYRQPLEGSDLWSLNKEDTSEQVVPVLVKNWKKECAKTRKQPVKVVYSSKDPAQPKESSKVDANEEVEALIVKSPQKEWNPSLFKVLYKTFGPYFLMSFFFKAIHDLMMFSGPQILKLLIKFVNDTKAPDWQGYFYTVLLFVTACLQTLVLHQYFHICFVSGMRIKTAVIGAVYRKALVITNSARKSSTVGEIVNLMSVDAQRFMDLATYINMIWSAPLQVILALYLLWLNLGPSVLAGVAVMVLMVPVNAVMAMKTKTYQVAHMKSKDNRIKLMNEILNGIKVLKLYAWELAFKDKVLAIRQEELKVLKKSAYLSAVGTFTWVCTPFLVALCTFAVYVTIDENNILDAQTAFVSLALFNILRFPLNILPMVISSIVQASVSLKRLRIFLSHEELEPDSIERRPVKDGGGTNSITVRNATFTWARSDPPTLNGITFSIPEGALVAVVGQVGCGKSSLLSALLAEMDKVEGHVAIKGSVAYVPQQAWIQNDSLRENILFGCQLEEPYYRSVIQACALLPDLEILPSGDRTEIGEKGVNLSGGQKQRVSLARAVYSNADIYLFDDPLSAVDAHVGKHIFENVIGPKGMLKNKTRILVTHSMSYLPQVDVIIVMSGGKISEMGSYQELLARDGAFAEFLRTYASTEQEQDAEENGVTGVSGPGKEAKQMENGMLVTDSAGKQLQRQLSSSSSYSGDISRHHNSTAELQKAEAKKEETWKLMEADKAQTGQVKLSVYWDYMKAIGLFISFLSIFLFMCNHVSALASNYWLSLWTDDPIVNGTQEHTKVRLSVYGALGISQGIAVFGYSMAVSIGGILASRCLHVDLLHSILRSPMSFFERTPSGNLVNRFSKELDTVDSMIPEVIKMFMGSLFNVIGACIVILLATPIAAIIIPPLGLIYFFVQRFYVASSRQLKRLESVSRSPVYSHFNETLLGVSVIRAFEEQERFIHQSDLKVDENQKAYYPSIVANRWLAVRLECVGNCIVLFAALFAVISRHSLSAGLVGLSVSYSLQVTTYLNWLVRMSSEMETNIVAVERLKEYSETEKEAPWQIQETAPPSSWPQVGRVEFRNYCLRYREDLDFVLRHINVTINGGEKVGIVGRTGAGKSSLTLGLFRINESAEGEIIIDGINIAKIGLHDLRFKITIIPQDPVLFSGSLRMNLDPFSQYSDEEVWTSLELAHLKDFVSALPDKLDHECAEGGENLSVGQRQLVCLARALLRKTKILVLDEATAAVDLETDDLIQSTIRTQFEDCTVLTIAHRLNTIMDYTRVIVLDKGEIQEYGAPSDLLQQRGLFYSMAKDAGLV

For the molecule `CN(C)C(=O)CCSC(SCCC(=O)O)c1cccc(/C=C/c2ccc3ccc(Cl)cc3n2)c1` (stereo not drawn) [MK-571], in the data set with A549 cells, the “Increase in sensitivity to MRP1 substrate drugs” value is recorded as “six-fold”.

Take `CN(Cc1cnc2nc(N)nc(N)c2n1)c1ccc(C(=O)N[C@@H](CCC(=O)O)C(=O)O)cc1` [Methotrexate, methotrexate]: the IC50 with A549 cells (setting [1]) came to 48 nM; in the data set on A549 cells (setting [2]), 230 nM.

As for `CC[C@]1(O)C[C@H]2CN(CCc3c([nH]c4ccccc34)[C@@](C(=O)OC)(c3cc4c(cc3OC)N(C=O)[C@H]3[C@@](O)(C(=O)OC)[C@H](OC(C)=O)[C@]5(CC)C=CCN6CC[C@]43[C@@H]65)C2)C1` [Vincristine, vincristine], the figures for the IC50 in the data set with A549 cells (setting [1]) and in the data set with A549 cells (setting [2]) were 45 nM and 360 nM, respectively.

Regarding `CCOC(=O)C#CC(=O)OCC` [diethyl acetylenedicarboxylate], the IC50 against MRP1 was determined as 6 nM.

With `COc1cc([C@@H]2c3cc4c(cc3[C@@H](O[C@@H]3O[C@@H]5CO[C@@H](C)O[C@H]5[C@H](O)[C@H]3O)[C@H]3COC(=O)[C@H]23)OCO4)cc(OC)c1O` [etoposide], the IC50 in the data set with A549 cells (setting [1]) turned out to be 75 nM; with A549 cells (setting [2]) it was 1000 nM; with HEK control cells (read-out: IC50 etoposide-induced growth inhibition, co-treatment with 3 nM HN2) it was 47 nM; in the data set on HEK control cells (read-out: IC50 etoposide-induced growth inhibition, etoposide alone), 55 nM; in the data set “in vitro” (co-treated with 10 nM HN2) it was 42 nM; in the data set “in vitro” (etoposide alone), 960 nM.

Broadly, the IC50 is the concentration needed to halve the response being measured.
